Results from paper PMC11091889, “Silver Organometallics that are Highly Potent Thioredoxin and Glutathione Reductase Inhibitors: Exploring the Correlations of Solution Chemistry with the Strong Antibacterial Effects” (ACS Infectious Diseases, 2024).
Where two headings read alike, the source gives them in different places.

How the values were obtained:
[1] = Conductometry: molar conductivity of silver complexes in DMSO; type: physicochemical; conditions: 1.0 mM in DMSO, calculated as monocarbene (NHC)AgX
Procedure: Since both the neutral monocarbene and the ionic biscarbene form of the complexes may exist in various proportions in the solution, conductometry studies were performed to reveal the dominant structure. The molar conductivity of 1.0 mM solutions of each complex in DMSO was determined after different periods up to 24 h using AgNO3 as 1:1 electrolyte reference (see Table 1). According to the literature, the expected range of molar conductivity for 1:1 electrolytes in DMSO is 35–90 S cm^2 mol^–1.[45],[46]
Conductivity measurements were performed using an Apera Instruments EC9500 conductivity meter. Solutions (as indicated, otherwise 1.0 mM) of all compounds were prepared using freshly distilled DMSO with a specific electrical conductivity of ≤3 × 10^–8 S cm^–1. The conductivities were measured at 25 ± 2 °C immediately after complete dissolution and after 24 h.

[2] = tested on: P. aeruginosa PA7 (DSM 24068); assay: microbe, parasite or virus in culture; type: cell-based, Pseudomonas aeruginosa
Procedure: (§1) The antibacterial effect of the silver NHC complexes and selected ligands was evaluated in two Gram-positive [Enterococcus faecium, methicillin resistant S. aureus, (MRSA)] and in four Gram-negative (Acinetobacter baumannii, Escherichia coli, Klebsiella pneumoniae, and Pseudomonas aeruginosa) pathogenic bacterial strains using broth microdilution assays. The resulting minimal inhibitory concentrations (MICs, Table 2) and EC50 (Table S6) were determined by a curve fitting procedure. Silver nitrate (AgNO3), SSD, and various antibiotics were used as references.
(§2) The following strains of ESKAPE panel were utilized and maintained at 37 °C in MHB (21 g/L Müller Hinton broth, pH 7.4) or TSY (30 g/L trypticase soy broth, 3 g/L yeast extract, pH 7.0–7.2) media: A. baumannii (DSM 30007, ATCC 19606), E. coli (DSM1116, ATCC 9637), K. pneumoniae (DSM 11678, ATCC33495), P. aeruginosa PA7 (DSM 24068) in MHB; E. faecium (DSM 20477, ATCC 19434), and S. aureus MRSA (DSM 11822, ICB 25701) in TSY. MIC values were determined following a standardized protocol in broth microdilution assays. The compounds and reference substances (AgNO3 and SSD) were serially diluted from 64 to 1 μg/mL. Starting inocula of 2–8 × 10^5 CFU/mL in MHB or TSY media at 37 °C were used, and serial dilutions were carried out in 96-well microtiter plates in duplicate. After incubation of the plates for 22 h at 37 °C, the absorbance at 600 nm was measured using The Spark multimode microplate reader (Tecan Trading AG). The MIC values for the tested compounds were determined in three independent experiments and presented in μM with standard errors and also in μg/mL. Amikacin (P. aeruginosa), linezolid (S. aureus), and ciprofloxacin (all other strains) served as positive controls. The MIC and EC50 values were determined by curve fitting with Sigma Plot. To determine the effect of the culture medium on the activity of silver compounds, the assay was performed using MHB, TSY, or DMEM (Gibco). To observe the effect of individual components of TSY medium, antibacterial tests were performed using MHB with addition of tryptone (17 g/L) or yeast extract (3 g/L, both were purchased from Sigma).

[3] = tested on: A. baumannii (DSM 30007, ATCC 19606); assay: Broth microdilution antibacterial assay; type: cell-based, Acinetobacter baumannii
Procedure: as §1, §2

[4] = tested on: E. coli (DSM1116, ATCC 9637); assay: microbe, parasite or virus in culture; type: cell-based, Escherichia coli; conditions: n = 3, MHB; for MIC E. coli / MIC E. coli (value in brackets) / MIC: 22 h
Procedure: as §1, §2

[5] = tested on: K. pneumoniae (DSM 11678, ATCC33495); assay: Broth microdilution antibacterial assay; type: cell-based, Klebsiella pneumoniae
Procedure: as §1, §2

[6] = tested on: S. aureus MRSA (DSM 11822, ICB 25701); assay: microbe, parasite or virus in culture; type: cell-based, methicillin resistant S. aureus
Procedure: as §1
The importance of the culture medium used in antibacterial assays has been pointed out for antibiotics and in particular for silver.[53]−[55] In our recent studies, tryptic soy yeast (TSY) broth has been used for growing Gram-positive bacteria. Two components thereof, tryptone and yeast extract, have been reported to affect the antibacterial activity of silver nitrate.[55] Moreover, such an effect was also observed for other media containing at least one of those components.[11],[53] […] Silver nitrate served as a reference, and three different growth media were studied, namely, Müller-Hinton Broth (MHB, commonly used for Gram-negative bacteria), TSY broth (commonly used for Gram-positive bacteria), and DMEM supplemented with 10% FCS (commonly used for growth of mammalian and human cells).
as §2

[7] = tested on: E. faecium (DSM 20477, ATCC 19434); assay: Broth microdilution antibacterial assay; type: cell-based, Enterococcus faecium
Procedure: as §1, §2

[8] = mean ± standard error, n = 3, MHB, 22 h
[9] = mean ± standard error, n = 3, MHB; read-out: EC50 P. aeruginosa
[10] = mean ± standard error, n = 3, MHB; read-out: EC50 A. baumannii
[11] = mean ± standard error, n = 3, MHB; read-out: EC50 K. pneumoniae
[12] = mean ± standard error, n = 3, TSY, 22 h
[13] = mean ± standard error, n = 3, TSY; read-out: EC50 MRSA
[14] = mean ± standard error, n = 3, TSY; read-out: EC50 E. faecium

Row | Compound | Molar conductivity ΛM ([1]; 1 h after dissolution) [S cm^2 mol^–^1] | Molar conductivity ΛM ([1]; 24 h after dissolution) [S cm^2 mol^–^1] | MIC P. aeruginosa [2, 8] [µM] | EC50 [2, 9] [µM] | MIC P. aeruginosa (value in brackets) ([2]; n = 3, MHB, 22 h) [mg/L] | MIC A. baumannii [3, 8] [µM] | EC50 [3, 10] [µM] | MIC A. baumannii (value in brackets) ([3]; n = 3, MHB, 22 h) [mg/L] | EC50 ([4]; mean ± standard error) [µM] | MIC E. coli ([4]; mean ± standard error) [µM] | MIC E. coli (value in brackets) [4] [mg/L] | MIC K. pneumoniae [5, 8] [µM] | EC50 [5, 11] [µM] | MIC K. pneumoniae (value in brackets) ([5]; n = 3, MHB, 22 h) [mg/L] | MIC MRSA [6, 12] [µM] | EC50 [6, 13] [µM] | MIC MRSA (value in brackets) ([6]; n = 3, TSY, 22 h) [mg/L] | MIC E. faecium [7, 12] [µM] | EC50 [7, 14] [µM] | MIC E. faecium (value in brackets) ([7]; n = 3, TSY, 22 h) [mg/L] | other results
1 | CCn1[c](=[Ag][Br])n(Cc2ccccn2)c2ccccc21 [2b, Bromido (1-Ethyl-3-(pyridin-2-ylmethyl)-benzimidazol-2-ylidene) Silver(I)] | 5.47 | 5.07 | 9.4 ± 0.0 | 6.9 ± 0.5 | 4 | 12.5 ± 3.1 | 2.2 ± 0.3 | 5 | 35.6 ± 9.4 | 50.2 ± 12.5 | 21 | 15.7 ± 3.1 | 9 ± 1 | 7 | 151 ± 0.0 | 88.5 ± 1.6 | 64 | 151 ± 0.0 | 128 ± 0.9 | 64 | –
2 | CC(C)[n+]1cn(Cc2ccccn2)c2ccccc21.[Br-] [L3b, 1-Isopropyl-3-(pyridin-2-ylmethyl)-benzimidazolium Bromide] | – | – | > 250 | – | – | > 250 | – | – | > 250 | – | – | > 250 | – | – | > 250 | – | – | – | – | – | MIC ([2]; Pseudomonas aeruginosa, DSM24068, 22 h, read-out: MIC P. aeruginosa (value in brackets), n = 3, MHB, 22 h): > 128 mg/L; EC50 ([2]; read-out: EC50 P. aeruginosa; mean ± standard error, n = 3, MHB): > 250 µM; MIC ([3]; Acinetobacter baumannii, 22 h, read-out: MIC A. baumannii (value in brackets)): ≥ 128 mg/L; EC50 ([3]; read-out: EC50 A. baumannii; mean ± standard error, n = 3, MHB): > 250 µM; MIC ([4]; Escherichia coli, read-out: MIC E. coli (value in brackets)): > 128 mg/L; MIC ([4]; mean ± standard error, read-out: MIC E. coli): > 250 µM; MIC ([5]; Klebsiella pneumoniae, 22 h, read-out: MIC K. pneumoniae (value in brackets)): > 128 mg/L; EC50 ([5]; read-out: EC50 K. pneumoniae; mean ± standard error, n = 3, MHB): > 250 µM; MIC ([6]; Staphylococcus aureus, 22 h, read-out: MIC MRSA (value in brackets)): > 128 mg/L; EC50 ([6]; read-out: EC50 MRSA; mean ± standard error, n = 3, TSY): > 250 µM; MIC ([7]; Enterococcus faecium, 22 h, read-out: MIC E. faecium, mean ± standard error, n = 3, TSY, 22 h): ≥ 250 µM; EC50 ([7]; read-out: EC50 E. faecium; mean ± standard error, n = 3, TSY): ≥ 250 µM
3 | Cn1[c]([Ag][Cl])[n+](Cc2ccccn2)c2ccccc21 [1a] | 2.88 | 3.05 | 10.9 ± 0.0 | 5.7 ± 0.8 | 4 | 14.6 ± 3.6 | 1.7 ± 0.4 | 5 | 53.3 ± 8.6 | 116 ± 29 | 43 | 18.2 ± 3.6 | 8.5 ± 1.2 | 7 | 175 ± 0.0 | 146 ± 2.8 | 64 | 175 ± 0.0 | 145 ± 2.3 | 64 | –
